Data on one substance can be found in patent US20260284189A1, “TREATMENT OF NON-SMALL CELL LUNG CANCER” (ASTRAZENECA AB, priority 2023, published 2026).

The test system of assay [1] is resectable non-small cell lung cancer (R-NSCLC). As to the kind of experiment: AEGEAN phase III: pathological response (pCR, MPR) by central pathology review. The assay is classed as in vivo, human. Particulars: final analysis. From the text:
As used herein, the terms “pathological complete response” or “pathological CR” or “pCR” refer to the proportion of patients who have 0% residual viable tumor cells within all resected tissue (including primary lung lesion and lymph nodes) following neoadjuvant treatment as assessed by central pathology laboratory. […] Central pathology assessment of pCR will be performed according to the recommended methods and definitions described by IASLC 2020 (Travis et al. “IASLC Multidisciplinary Recommendations for Pathologic Assessment of Lung Cancer Resection Specimens After Neoadjuvant Therapy.” J Thorac Oncol. 2020 May; 15(5):709-740. doi:10.1016/j.jtho.2020.01.005). The analysis can be performed using a Cochran-Mantel-Haenszel (CMH) test, stratified by disease stage (Stage II versus Stage III) and PD-L1 expression status (<1% versus ≥1%). The effect of treatment will be estimated by the difference in proportions between treatment groups, together with their corresponding CI and p-value.
As used herein, the terms “major pathological response” and “mPR” refer to the proportion of patients with 10% or less residual viable tumor tissue in lung primary tumor after neoadjuvant treatment at the time of resection as assessed per central pathology laboratory. […]
Primary tumors and sampled lymph nodes were assessed for pathological response to neoadjuvant treatment by central pathology review using recommendations from the IASLC. […] 2020 May; 15(5):709-740. doi: 10.1016/j.jtho.2020.01.005; Hellmann et al. “Pathological response after neoadjuvant chemotherapy in resectable non-small-cell lung cancers: proposal for the use of major pathological response as a surrogate endpoint.” Lancet Oncol 2014; 15(1):e42-50; Cottrell et al. “Pathologic features of response to neoadjuvant anti-PD-1 in resected non-small-cell lung carcinoma: a proposal for quantitative immune-related pathologic response criteria (irPRC).” Ann Oncol 2018; 29(8):1853-1860). […]
For pathological endpoints, response rates were compared between treatment arms using a stratified Cochran-Mantel-Haenszel test; the treatment effect was estimated by the differences in response rates, with their corresponding 95% confidence intervals (CIs) calculated by the stratified Miettinen and Nurminen method. EFS was compared between the treatment arms using a stratified log-rank test; the treatment effect was estimated by HRs and 95% CIs calculated with stratified Cox-proportional-hazards models. […] For pCR, the differences in response rates were calculated for each subgroup, with corresponding 95% CIs estimated using an unstratified Miettinen and Nurminen method; for EFS, HRs and 95% CIs were calculated for each subgroup using a Cox-proportional-hazards model with treatment as the only covariate.

Assay [2] shares this test system. As to the kind of experiment: AEGEAN phase III: objective response prior to surgery, BICR (RECIST v1.1). The assay is classed as in vivo, human. Particulars: mITT N = 366. Here is the method:
Tumors were evaluated per RECIST v1.1 using imaging collected at the following timepoints: baseline (≤28 days before randomization); after completing neoadjuvant treatment and before surgery; 5 weeks (±2 weeks) after surgery and before starting adjuvant treatment; every 12 weeks (±1 week) until Week 48 after surgery; every 24 weeks (±2 weeks) until Week 192 (i.e., ~4 years post-surgery); and every 48 weeks (±2 weeks) thereafter until local or distant recurrence, consent withdrawal, or death.
Efficacy assessments were performed and determined by pathology review or a BICR using RECIST 1.1 assessment, as applicable, including EFS (mITT and PD-L1 TC≥1% analysis set), pCR (mITT and PD-L1 TC≥1% analysis set), mPR (mITT and PD-L1 TC≥1% analysis set), DFS (modified resected set and PD-L1 TC≥1% resected set), and OS (mITT and PD-L1 TC≥1% analysis set). The EFS event of PD that precludes surgery or PD discovered during surgery that prevents completion of surgery will be determined by the Investigator.

In the case of “Durvalumab: antibody that selectively binds PD-L1 and blocks binding of PD-L1 to PD-1 and CD80; arm given with platinum-based chemotherapy before surgery”, in assay [1] (mITT N=366, central review), the “MPR, proportion of patients” value came to 33.3% and the “pCR, proportion of patients” value was found to be 17.2%. Also, in assay [1] (mITT N=740), the “MPR difference in proportions, durvalumab arm versus placebo arm” value came out at 21.0 and the “pCR difference in proportions, durvalumab arm versus placebo arm” value is 13.0%. Further, in assay [2], the “Complete response: number of patients” value was determined as 4, the “Complete response: patients” value is recorded as “(1.1) %”, the “Not evaluable (objective response): number of patients” value is 25 and the “Not evaluable (objective response): patients” value was “(6.8) %”. Besides, in assay [2], the Objective response rate entry was “(56.3) %”, the “Objective response rate: number of patients” value came out at 206, the “Partial response: number of patients” value is recorded as 202 and the “Partial response: patients” value is recorded as “(55.2) %”. Moreover, in assay [2], the “Progression: number of patients” value came to 11, the “Progression: patients” value is “(3.0) %”, the “Stable disease: number of patients” value amounted to 124 and the “Stable disease: patients” value was “(33.9) %”.
